Values of other authors in patent US7767228B2, “Pharmaceutical composition for oral application and method for preparing thereof” (Cum Pharma Consulting Anstalt, priority 2004, dated 2010).

For O=C(C1CCCCC1)N1CC(=O)N2CCc3ccccc3C2C1 (stereo not shown) [Praziquantel, praziquantel], the solubility in water is listed as “very low”.
